Measurements from patent US20070203225A1, “METHOD OF INCREASING ENDOGENOUS ADIPONECTIN PRODUCTION AND LEPTIN PRODUCTION” (priority 2001, published 2007).
“Also recorded” adds a separate entry of the source.

Assays:
isolated rat adipocytes [1] = experiment: Glucose utilization (uptake) by isolated cultured rat adipocytes; assay type: cell-based; details: for effect on glucose utilization (in words): insulin 0.16 to 1.6 nM
Experimental: Cell isolation/preparation: Adipocytes are prepared from epididymal fat pads from male Sprague-Dawley rats weighing 300-600 g. Epididymal fat depots are resected from halothane anesthetized rats under aseptic conditions and adipocytes are isolated by collagenase digestion by the Rodbell method (Rodbell M. Metabolism of isolated fat cells. I. Effects of hormones on glucose metabolism and lipolysis. J Biol Chem. 1964; 239: 375-380), with minor modifications as previously described (Mueller W M, Gregoire F M, Stanhope K L, Mobbs C V, Mizuno T M, Warden C H, Stem J S, Havel P J. Evidence that glucose metabolism regulates leptin secretion from isolated adipocytes. Endocrinology 139: 551-558, 1998; Mueller W M, Stanhope K L, Gregoire F, Evans J L, Havel P J. Effects of metformin and vanadium on leptin secretion from cultured rat adipocytes. Obesity Res. 8: 530-539, 2000; Medina E A, Stanhope K L, Mizuno T M, Mobbs C V, Gregoire F, Hubbard N E, Erickson K L, Havel P J. Effects of tumor necrosis factor alpha on leptin secretion and gene expression: relationship to changes of glucose metabolism in isolated rat adipocytes. Int J Obes Relat Metab Disord. 23: 896-903, 1999.). The isolated adipocytes are then incubated for 30 minutes at 37 C before being plated and cultured on Matrigel-coated plates.
Adipocyte Culture: Adipocytes are maintained in culture anchored to a basement membrane matrix (Matrigel, Becton Dickinson, Franklin Lakes, N.J.) or collagen from Cohesion Technologies, (Palo Alto, Calif.). Although all in vitro systems have inherent advantages and disadvantages, advantages of this system compared with cultures containing free-floating adipocytes are that the matrix simulates their normal basement membrane attachment and that the cells are maintained in close proximity to each other, allowing direct cell to cell contact. Together the cell contact and basement membrane attachment help to maintain differentiation, since adipocytes have a strong tendency to dedifferentiate in long-term (>24 h) culture. In addition, the matrix and the small amount of serum in the media both contain growth factors, which are also likely to help in maintaining cell differentiation. Furthermore, the adipocytes in this system are not exposed to toxic levels of oxygen at the interface of the media and the incubator atmosphere, as opposed to free-floating adipocytes which aggregate at the surface of the media. An advantage of the system over those containing minced adipose tissue is that all of the cells in the culture are equally exposed to the nutrients and the oxygen dissolved in the media. Thus, although clearly different from the in vivo situation, this system provides a more physiological environment than most systems for maintaining adipocytes in long-term culture.
In culturing each suspension, Matrigel is first thawed on ice to a liquid and uniformly applied to the surface of culture dishes (300 μl Matrigel/35 mm well). After the incubation period, 150 μl of the adipocyte suspension (2:1 ratio of packed cells to media) are plated on the Matrigel or collagen matrix. Adipocytes from each suspension are thoroughly mixed with a transfer pipette before plating to insure that a similar number adipocytes with a similar size distribution are added to the control and experimental wells for each suspension. The warmth of the added cells and buffer causes the Matrigel to gel around the adipocytes, or the neutralization of the acidic pH of the collagen solution to 7.0 solidifies the collagen, and both of these techniques effectively anchor the adipocytes to the culture dish. After a 30 minute incubation at 37° C., 2 ml of warm culture medium is added. The cells are maintained in an incubator at 37° C. for 96 hours with 6% CO2. Aliquots of adipocytes from each animal are divided into wells, with the different concentrations of insulin or other agents to be tested. In each plate an appropriate control well contains adipocytes from the same animal. […]

isolated rat adipocytes [2] = experiment: Glucose oxidation: incorporation of 14C-glucose into CO2 by isolated rat adipocytes; assay type: cell-based
Experimental: Substrate Oxidation: Oxidation is measured using a modification of the method of Rodbell (Rodbell, 1964) and a modification of the cell culture system described by Bottcher and Furst (Bottcher, 1996). Briefly, adipocytes are isolated, counted and sized as previously described. Adipocytes are plated as described except they are placed in a sterile 20 ml scintillation vial instead of a well. Two ml of treatment media containing [U-^14C]-substrate (0.3 uCi/ml; glucose, fatty acids, malate, fumarate, pyruvate) is added to the vials. The vials are filled with 95% O2-5% CO2 gas and capped with rubber stoppers fitted with a hanging center well. Each well contains a 2×8 cm strip of Whatman No. 1 paper. Vials are maintained at 37° C. for 48 hr. After 48 hr, a sample of media is removed from each vial using a 4 inch, 23 gauge needle. Using another syringe and 23 gauge needle, 200 ul of sodium benzethonium is placed onto the paper strip and hanging well to capture CO2. Concentrated sulfuric acid is added to the vial in order to lyse cells and liberate all CO2 from the collagen matrix. After 24 hours, the hanging well and paper are transferred to another vial containing scintillation fluid and counted. The data are expressed as % DPM recovered as CO2 of the total DPM remaining in the media at 48 hours and as micromoles of substrate oxidized over time.

With `O=C(O)c1cc(SSc2ccc([N+](=O)[O-])c(C(=O)O)c2)ccc1[N+](=O)[O-]` [DTNB, 5,5′-Dithiobis(2-nitrobenzoate)] the “Change in Parameter: Glucose Uptake (μg) over 96 h” value (isolated rat adipocytes [1]; DTNB 100.0 μM + insulin 0.48 nM vs control (insulin only)) was “+348 ± 114 μg”, the “Glucose Uptake (μg) over 96 h” value (isolated rat adipocytes [1]; DTNB 100.0 μM + insulin 0.48 nM, isolated rat adipocytes, 96 h culture) was 1384 ± 94 µg and the “effect on total / insulin-mediated glucose utilization (in words)” value (isolated rat adipocytes [1]; DTNB 100 μM, NEM 0.1 μM, DCA 2 mM) was “increased”. The “effect on absolute and proportional glucose oxidation, labeled glucose into CO2 (in words)” value (isolated rat adipocytes [2]; DTNB (50 μM in FIG. 20) and DCA (2 mM), percent of control) was “increase”.
With insulin the “effect on glucose utilization (in words)” value (isolated rat adipocytes [1]) was “concentration dependent increase”, the “effect on glucose utilization (in words)” value (isolated rat adipocytes [1]; listed as Insulin) was “increases” and the “increase of proportional oxidation of glucose” value (isolated rat adipocytes [2]; insulin 1.6 nM) was 43.6±10.6%. The “effect on amount of glucose oxidized to CO2 (in words)” value (isolated rat adipocytes [2]; insulin 1.6 nM, n=18) was “doubles; also recorded: markedly increases”.
